Data taken from patent publication US20260364184A1, “COMPOUND BASED ON OXOISOINDOLINYL-SUBSTITUTED TETRAHYDROPYRIMIDINE-DIONE AND USE THEREOF” (GLUETACS THERAPEUTICS (SHANGHAI) CO., LTD., priority 2023, published 2026).

Tests used:
IRAK4 = target: T1, IRAK4 (Homo sapiens, UniProt Q9NWZ3); experiment: Western blot degradation of IRAK4; assay type: cell-based; conditions: hPBMC Cell; 24 hours
T1 construct: expression of target proteins in cells; endogenous in cells
T1 sequence (Q9NWZ3 1-460): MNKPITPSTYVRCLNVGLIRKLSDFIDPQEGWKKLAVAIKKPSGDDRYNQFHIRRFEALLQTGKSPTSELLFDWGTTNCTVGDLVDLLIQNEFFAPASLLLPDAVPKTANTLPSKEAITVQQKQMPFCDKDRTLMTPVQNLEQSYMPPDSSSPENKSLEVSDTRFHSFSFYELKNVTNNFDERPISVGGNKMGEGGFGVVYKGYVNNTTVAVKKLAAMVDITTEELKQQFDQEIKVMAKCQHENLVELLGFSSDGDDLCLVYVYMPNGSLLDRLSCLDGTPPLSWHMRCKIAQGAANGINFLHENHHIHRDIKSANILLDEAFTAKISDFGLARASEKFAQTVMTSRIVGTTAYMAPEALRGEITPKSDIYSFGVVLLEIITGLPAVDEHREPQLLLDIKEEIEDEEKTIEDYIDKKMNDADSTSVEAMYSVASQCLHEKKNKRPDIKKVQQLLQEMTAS
Procedure, shortened: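 Cells treated with compound, lysed, and target protein detected by Western blot (SDS-PAGE, nitrocellulose transfer). DC50 taken as the concentration giving band grayscale half that of DMSO control, estimated by concentration-response fitting; remaining protein (%) from target band normalised to internal control band; degradation (%) = 1 − remaining.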

[1] = target: T2, human Cereblon WT GST-tagged protein (CRBN) (Homo sapiens, UniProt Q96SW2); experiment: CRBN binding by HTRF (Cereblon binding kit); conditions: for inhibition at 0.5 µM: read-out: Inhibition Rate at 0.5 μM (%); for inhibition at 2 µM: read-out: Inhibition Rate at 2 μM (%)
T2 construct: purchased CISBIO 64BDCRBNPEH
Procedure, shortened: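 GST-tagged human Cereblon WT was incubated 3 h at room temperature with compound, thalidomide-Re tracer and Eu anti-GST antibody. Final compound concentrations were 10 to 0.00064 µM (7 points) or 2 and 0.5 µM. Inhibition rate was calculated from HTRF 665/620 nm ratios versus solvent and blank controls.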

T2 sequence (Q96SW2 whole entry): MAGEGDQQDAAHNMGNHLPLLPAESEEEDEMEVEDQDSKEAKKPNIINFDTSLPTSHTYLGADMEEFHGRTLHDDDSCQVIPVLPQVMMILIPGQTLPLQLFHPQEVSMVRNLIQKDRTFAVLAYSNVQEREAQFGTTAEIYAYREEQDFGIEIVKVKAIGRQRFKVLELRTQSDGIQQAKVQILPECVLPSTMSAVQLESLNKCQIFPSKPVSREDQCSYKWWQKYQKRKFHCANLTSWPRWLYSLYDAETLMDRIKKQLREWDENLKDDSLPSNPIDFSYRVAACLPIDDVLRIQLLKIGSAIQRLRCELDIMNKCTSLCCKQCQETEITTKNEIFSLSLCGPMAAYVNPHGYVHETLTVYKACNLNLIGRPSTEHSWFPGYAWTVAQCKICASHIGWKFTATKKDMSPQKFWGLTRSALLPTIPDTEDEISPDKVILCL

Degradation of substrate protein IRAK4 (substrate protein remaining %) (IRAK4) | Inhibition Rate at 0.5 μM (%) [1] | Inhibition Rate at 2 μM (%) [1] | inhibition at 0.5 µM [1] [%] | inhibition at 2 µM [1] [%] | SMILES
A (0%≤substrate protein remaining %≤80%) | a2 (20% < a2 ≤ 30%) | a6 (60% < a6 ≤ 80%) |  |  | O=C1CCN(N2Cc3cc(CN4CCC(n5cc(NC(=O)c6cnn7ccc(N8C[C@H]9C[C@@H]8CO9)nc67)c(C(F)F)n5)CC4)ccc3C2=O)C(=O)N1 [GT-05028, 5-((1R,4R)-2-oxa-5-azabicyclo[2.2.1]heptan-5-yl)-N-(3-(difluoromethyl)-1-(1-((2-(2,4-dioxotetrahydropyrimidin-1(2H)-yl)-1-oxoisoindolin-5-yl)methyl)piperidin-4-yl)-1H-pyrazol-4-yl)pyrazolo[1,5-a]pyrimidine-3-carboxamide]
 |  |  | 30 to 40 | 30 to 40 | N#Cc1ccc(O[C@H]2CC[C@H](NC(=O)c3ccc(N4CCC(CN5C[C@@H]6C[C@H]5CN6c5ccc6c(c5)C(=O)N(N5CCC(=O)NC5=O)C6=O)CC4)nn3)CC2)cc1Cl [GT-05226, N-((1r,4r)-4-(3-chloro-4-cyanophenoxy)cyclohexyl)-6-(4-(((1S,4S)-5-(2-(2,4-dioxotetrahydropyrimidin-1(2H)-yl)-1,3-dioxoisoindolin-5-yl)-2,5-diazabicyclo[2.2.1]heptan-2-yl)methyl)piperidin-1-yl)pyridazine-3-carboxamide]
A (0%≤substrate protein remaining %≤80%) |  |  | 30 to 40 | 53 to 60 | O=C1CCN(N2C(=O)c3ccc(N4C5CC4CN(C[C@H]4CC[C@H](n6cc(NC(=O)c7cnn8ccc(N9C[C@H]%10C[C@@H]9CO%10)nc78)c(C(F)F)n6)CC4)C5)cc3C2=O)C(=O)N1 [GT-05242, 5-((1R,4R)-2-oxa-5-azabicyclo[2.2.1]heptan-5-yl)-N-(3-(difluoromethyl)-1-((1r,4R)-4-((6-(2-(2,4-dioxotetrahydropyrimidin-1(2H)-yl)-1,3-dioxoisoindolin-5-yl)-3,6-diazabicyclo[3.1.1]heptan-3-yl)methyl)cyclohexyl)-1H-pyrazol-4-yl)pyrazolo[1,5-a]pyrimidine-3-carboxamide]

Further lines, the molecule ahead of its results:

SMILES | Degradation of substrate protein IRAK4 (substrate protein remaining %) (IRAK4) | Inhibition Rate at 0.5 μM (%) [1] | Inhibition Rate at 2 μM (%) [1] | inhibition at 0.5 µM [1] [%] | inhibition at 2 µM [1] [%]
O=C1CCN(N2Cc3cc(CN4CCC(n5cc(NC(=O)c6coc(-c7ccnc(NCC8CC8)c7)n6)c(C(F)F)n5)CC4)ccc3C2=O)C(=O)N1 [GT-04951, 2-(2-((cyclopropylmethyl)amino)pyridin-4-yl)-N-(3-(difluoromethyl)-1-(1-((2-(2,4-dioxotetrahydropyrimidin-1(2H)-yl)-1-oxoisoindolin-5-yl)methyl)piperidin-4-yl)-1H-pyrazol-4-yl) oxazole-4-carboxamide] | A (0%≤substrate protein remaining %≤80%) | a3 (30% < a3 ≤ 40%) | a6 (60% < a6 ≤ 80%) |  | 
CC(C)(O)c1cc2nc(C3CCN(Cc4ccc5c(c4)CN(N4CCC(=O)NC4=O)C5=O)CC3)oc2cc1NC(=O)c1cccc(C(F)(F)F)n1 [GT-05748, N-(2-(1-((2-(2,4-dioxotetrahydropyrimidin-1(2H)-yl)-1-oxoisoindolin-5-yl)methyl)piperidin-4-yl)-5-(2-hydroxypropan-2-yl)benzo[d]oxazol-6-yl)-6-(trifluoromethyl) picolinamide] | A (0%≤substrate protein remaining %≤80%) |  |  | 10 to 20 | 60 to 80
O=C1CCN(N2Cc3cc(CN4CCC(n5cc(NC(=O)c6cnn7ccc(N8CCOCC8)nc67)c(C(F)F)n5)CC4)ccc3C2=O)C(=O)N1 [GT-05749] | A (0%≤substrate protein remaining %≤80%) |  |  | 20 to 30 | 53 to 60
O=C1CCN(N2C(=O)c3cccc(N4CCC(CN5CCC(n6cc(NC(=O)c7cnn8ccc(N9C[C@H]%10C[C@@H]9CO%10)nc78)c(C(F)F)n6)CC5)CC4)c3C2=O)C(=O)N1 [GT-05285, 5-((1R,4R)-2-oxa-5-azabicyclo[2.2.1]heptan-5-yl)-N-(3-(difluoromethyl)-1-(1-((1-(2-(2,4-dioxotetrahydropyrimidin-1(2H)-yl)-1,3-dioxoisoindolin-4-yl)piperidin-4-yl)methyl)piperidin-4-yl)-1H-pyrazol-4-yl)pyrazolo[1,5-a]pyrimidine-3-carboxamide] | A (0%≤substrate protein remaining %≤80%) |  |  | 20 to 30 | 60 to 80
N#Cc1ccc(O[C@H]2CC[C@H](NC(=O)c3ccc(N4CCC(CN5CC6CCC5CN6c5ccc6c(c5)C(=O)N(N5CCC(=O)NC5=O)C6=O)CC4)nn3)CC2)cc1Cl (stereo partly drawn) [GT-05832, N-((1r,4r)-4-(3-chloro-4-cyanophenoxy)cyclohexyl)-6-(4-((5-(2-(2,4-dioxotetrahydropyrimidin-1(2H)-yl)-1,3-dioxoisoindolin-5-yl)-2,5-diazabicyclo[2.2.2]octan-2-yl)methyl)piperidin-1-yl)pyridazine-3-carboxamide] |  |  |  | 30 to 40 | 40 to 53
CC1(C)[C@H](NC(=O)c2ccc(N3CCC(CN4CC5CCC4CN5c4ccc5c(c4)C(=O)N(N4CCC(=O)NC4=O)C5=O)CC3)nc2)C(C)(C)[C@H]1Oc1ccc(C#N)c(Cl)c1 (stereo partly drawn) [GT-05834, N-((1r,3r)-3-(3-chloro-4-cyanophenoxy)-2,2,4,4-tetramethylcyclobutyl)-6-(4-((5-(2-(2,4-dioxotetrahydropyrimidin-1(2H)-yl)-1,3-dioxoisoindolin-5-yl)-2,5-diazabicyclo[2.2.2]octan-2-yl)methyl)piperidin-1-yl)nicotinamide] |  |  |  | 30 to 40 | 20 to 30
